Tested on: HL-60
Assay: cell viability (% survival relative to DMSO control, bortezomib = 0%); higher = less cytotoxic
Settings: 1000 nM; 72 h
Outline: (§1)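 Percent survival figures are means of duplicate wells. They were obtained by CellTiter-Glo luminescence after 10 AML and 5 CML cell lines spent 72 h at 37 °C with 5% CO2 in 384-well plates with compounds at 1, 10, 100, 1000 or 10000 nM. Vehicle was set to 100% and a 10 µM positive control to 0%.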

SMILES	cell viability
O=C(NCCCCCCNC(=O)ONC1=CCCCC1)ONC1=CCCCC1	111%
O=C(C1CC1)N1CC[C@@H](C=C2NNC(=O)N2c2ccc(-c3ccc4occc4c3)cc2)C1	35%
CCCCCCCCCCCC(=O)c1c(O)c(C(=O)CCCCCCCCCCC)c(O)c(C2CC(c3ccc(O)cc3)Oc3cc(O)ccc32)c1O (centres undefined)	105%
NC(=O)c1cccc(-c2cccc(OC(=O)NC3CCCCC3)c2)c1 [URB-597]	94.3%
O=C1O[C@H]([C@@H](O)CO)C(O)=C1O [Vitamin C (ascorbate)]	108%

Same assay, conditions: 10000 nM; 72 h

SMILES	cell viability
O=C(O)C[C@@]1(O)C[C@@H](CCCCCCc2ccc(Cl)cc2Cl)OC1=O	99.8%
O=C(NCCCCCCNC(=O)ONC1=CCCCC1)ONC1=CCCCC1	93.8%
O=C(C1CC1)N1CC[C@@H](C=C2NNC(=O)N2c2ccc(-c3ccc4occc4c3)cc2)C1	38.1%
CCCCCCCCCCCC(=O)c1c(O)c(C(=O)CCCCCCCCCCC)c(O)c(C2CC(c3ccc(O)cc3)Oc3cc(O)ccc32)c1O (centres undefined)	114%
NC(=O)c1cccc(-c2cccc(OC(=O)NC3CCCCC3)c2)c1 [URB-597]	103%
O=C1O[C@H]([C@@H](O)CO)C(O)=C1O [Vitamin C (ascorbate)]	84.7%

Tested on: ML-2
Assay: as above
Settings: 1 nM; 72 h
Outline: as §1

SMILES	cell viability
O=C(O)C[C@@]1(O)C[C@@H](CCCCCCc2ccc(Cl)cc2Cl)OC1=O	103%
O=C(NCCCCCCNC(=O)ONC1=CCCCC1)ONC1=CCCCC1	94.8%
O=C(C1CC1)N1CC[C@@H](C=C2NNC(=O)N2c2ccc(-c3ccc4occc4c3)cc2)C1	101%
CCCCCCCCCCCC(=O)c1c(O)c(C(=O)CCCCCCCCCCC)c(O)c(C2CC(c3ccc(O)cc3)Oc3cc(O)ccc32)c1O (centres undefined)	105%
NC(=O)c1cccc(-c2cccc(OC(=O)NC3CCCCC3)c2)c1 [URB-597]	92.2%
O=C1O[C@H]([C@@H](O)CO)C(O)=C1O [Vitamin C (ascorbate)]	103%

Same assay, conditions: 10 nM; 72 h

SMILES	cell viability
O=C(O)C[C@@]1(O)C[C@@H](CCCCCCc2ccc(Cl)cc2Cl)OC1=O	116%
O=C(NCCCCCCNC(=O)ONC1=CCCCC1)ONC1=CCCCC1	107%
O=C(C1CC1)N1CC[C@@H](C=C2NNC(=O)N2c2ccc(-c3ccc4occc4c3)cc2)C1	98.4%
CCCCCCCCCCCC(=O)c1c(O)c(C(=O)CCCCCCCCCCC)c(O)c(C2CC(c3ccc(O)cc3)Oc3cc(O)ccc32)c1O (centres undefined)	114%
NC(=O)c1cccc(-c2cccc(OC(=O)NC3CCCCC3)c2)c1 [URB-597]	94.2%
O=C1O[C@H]([C@@H](O)CO)C(O)=C1O [Vitamin C (ascorbate)]	107%

Same assay, conditions: 100 nM; 72 h

SMILES	cell viability
O=C(O)C[C@@]1(O)C[C@@H](CCCCCCc2ccc(Cl)cc2Cl)OC1=O	106%
O=C(NCCCCCCNC(=O)ONC1=CCCCC1)ONC1=CCCCC1	108%
O=C(C1CC1)N1CC[C@@H](C=C2NNC(=O)N2c2ccc(-c3ccc4occc4c3)cc2)C1	107%
CCCCCCCCCCCC(=O)c1c(O)c(C(=O)CCCCCCCCCCC)c(O)c(C2CC(c3ccc(O)cc3)Oc3cc(O)ccc32)c1O (centres undefined)	118%
NC(=O)c1cccc(-c2cccc(OC(=O)NC3CCCCC3)c2)c1 [URB-597]	105%
O=C1O[C@H]([C@@H](O)CO)C(O)=C1O [Vitamin C (ascorbate)]	100%

Same assay, conditions: 1000 nM; 72 h

SMILES	cell viability
O=C(O)C[C@@]1(O)C[C@@H](CCCCCCc2ccc(Cl)cc2Cl)OC1=O	105%
O=C(NCCCCCCNC(=O)ONC1=CCCCC1)ONC1=CCCCC1	107%
O=C(C1CC1)N1CC[C@@H](C=C2NNC(=O)N2c2ccc(-c3ccc4occc4c3)cc2)C1	97.8%
CCCCCCCCCCCC(=O)c1c(O)c(C(=O)CCCCCCCCCCC)c(O)c(C2CC(c3ccc(O)cc3)Oc3cc(O)ccc32)c1O (centres undefined)	116%
NC(=O)c1cccc(-c2cccc(OC(=O)NC3CCCCC3)c2)c1 [URB-597]	105%
O=C1O[C@H]([C@@H](O)CO)C(O)=C1O [Vitamin C (ascorbate)]	102%

Same assay, conditions: 10000 nM; 72 h

SMILES	cell viability
O=C(O)C[C@@]1(O)C[C@@H](CCCCCCc2ccc(Cl)cc2Cl)OC1=O	106%
O=C(NCCCCCCNC(=O)ONC1=CCCCC1)ONC1=CCCCC1	99.1%
O=C(C1CC1)N1CC[C@@H](C=C2NNC(=O)N2c2ccc(-c3ccc4occc4c3)cc2)C1	88.4%
CCCCCCCCCCCC(=O)c1c(O)c(C(=O)CCCCCCCCCCC)c(O)c(C2CC(c3ccc(O)cc3)Oc3cc(O)ccc32)c1O (centres undefined)	104%
NC(=O)c1cccc(-c2cccc(OC(=O)NC3CCCCC3)c2)c1 [URB-597]	114%
O=C1O[C@H]([C@@H](O)CO)C(O)=C1O [Vitamin C (ascorbate)]	121%

Tested on: SHI-1
Assay: as above
Settings: 1 nM; 72 h
Outline: as §1

SMILES	cell viability
O=C(O)C[C@@]1(O)C[C@@H](CCCCCCc2ccc(Cl)cc2Cl)OC1=O	99.7%
O=C(NCCCCCCNC(=O)ONC1=CCCCC1)ONC1=CCCCC1	98.7%
O=C(C1CC1)N1CC[C@@H](C=C2NNC(=O)N2c2ccc(-c3ccc4occc4c3)cc2)C1	90.4%
CCCCCCCCCCCC(=O)c1c(O)c(C(=O)CCCCCCCCCCC)c(O)c(C2CC(c3ccc(O)cc3)Oc3cc(O)ccc32)c1O (centres undefined)	95.1%
NC(=O)c1cccc(-c2cccc(OC(=O)NC3CCCCC3)c2)c1 [URB-597]	93.9%
O=C1O[C@H]([C@@H](O)CO)C(O)=C1O [Vitamin C (ascorbate)]	110%

Same assay, conditions: 10 nM; 72 h

SMILES	cell viability
O=C(O)C[C@@]1(O)C[C@@H](CCCCCCc2ccc(Cl)cc2Cl)OC1=O	124%
O=C(NCCCCCCNC(=O)ONC1=CCCCC1)ONC1=CCCCC1	103%
O=C(C1CC1)N1CC[C@@H](C=C2NNC(=O)N2c2ccc(-c3ccc4occc4c3)cc2)C1	99.4%
CCCCCCCCCCCC(=O)c1c(O)c(C(=O)CCCCCCCCCCC)c(O)c(C2CC(c3ccc(O)cc3)Oc3cc(O)ccc32)c1O (centres undefined)	111%
NC(=O)c1cccc(-c2cccc(OC(=O)NC3CCCCC3)c2)c1 [URB-597]	86.1%
O=C1O[C@H]([C@@H](O)CO)C(O)=C1O [Vitamin C (ascorbate)]	106%

Same assay, conditions: 100 nM; 72 h

SMILES	cell viability
O=C(O)C[C@@]1(O)C[C@@H](CCCCCCc2ccc(Cl)cc2Cl)OC1=O	98.4%
O=C(NCCCCCCNC(=O)ONC1=CCCCC1)ONC1=CCCCC1	112%
O=C(C1CC1)N1CC[C@@H](C=C2NNC(=O)N2c2ccc(-c3ccc4occc4c3)cc2)C1	108%
CCCCCCCCCCCC(=O)c1c(O)c(C(=O)CCCCCCCCCCC)c(O)c(C2CC(c3ccc(O)cc3)Oc3cc(O)ccc32)c1O (centres undefined)	102%
NC(=O)c1cccc(-c2cccc(OC(=O)NC3CCCCC3)c2)c1 [URB-597]	89.4%
O=C1O[C@H]([C@@H](O)CO)C(O)=C1O [Vitamin C (ascorbate)]	105%

Same assay, conditions: 1000 nM; 72 h

SMILES	cell viability
O=C(O)C[C@@]1(O)C[C@@H](CCCCCCc2ccc(Cl)cc2Cl)OC1=O	102%
O=C(NCCCCCCNC(=O)ONC1=CCCCC1)ONC1=CCCCC1	112%
O=C(C1CC1)N1CC[C@@H](C=C2NNC(=O)N2c2ccc(-c3ccc4occc4c3)cc2)C1	94.7%
CCCCCCCCCCCC(=O)c1c(O)c(C(=O)CCCCCCCCCCC)c(O)c(C2CC(c3ccc(O)cc3)Oc3cc(O)ccc32)c1O (centres undefined)	112%
NC(=O)c1cccc(-c2cccc(OC(=O)NC3CCCCC3)c2)c1 [URB-597]	100%

From the supplement of paper PMC8671470
